# Measured values: patent publication US7453006B2, “Inositol derivatives for increasing chloride secretion and inhibiting inflammation” (Inologic, Inc., priority 2000, dated 2008)
# Entries after “also recorded” stand apart in the source; their conditions may differ.
# Experiments:
# [1] = system: arachidonic acid-induced inflammation in mouse ears; assay: arachidonic acid-induced inflammation in mouse ears; type: in vivo; details: for Ear Thickness: 20 nanomoles/ear topical 30 min before arachidonic acid, measured 60 min after arachidonic acid, control 56.5 ± 1.57
# Experimental: Arachidonic Acid (Nu-Chek, Elysian, Minn. 56028); Indomethacin (stock=12.5 mg/mL acetone). Prednisolone (Sigma Chem, P6004) 20 mM dissolved in acetone; Animals: Female Balb/c mice (B&K laboratories) and Swiss-Webster hybrid (B& K Laboratory, Kent, Wash.)
# The right ear of each mouse was used for the test compound. Unless otherwise indicated each compound was adjusted to 20 mM by dilution into DMSO or DMSO/5% Pluronic F127 as indicated and 1 or 2 microliters were applied to the test ear. Thirty minutes after each compound was applied, 4 mg arachidonic acid was applied (4 μL/ear; 2 μL/side) to both ears of each mouse. Measurements of edema were taken 60 min after the application of arachidonic acid with microcalipers (Oditest, Scientific Supply and Equipment) unless otherwise indicated. The results are shown in FIG. 15 as millimeters×10^−2 measured at the thickest point of each ear. Control measurements were performed on ears that were only treated with arachidonic acid.
# Response to prednisolone (20 μL of 20 mM/ear; 10 μl/side) added 3 hrs prior 20′ to arachidonic acid or indomethacin (5 μg/ear) added 30 min prior to test compounds was determined. The results are shown in Table A, where the anti-inflammatory/inflammatory effects of 20 nanomoles/ear of the indicated compounds were tested as described in Methods. Each plus represents a change from control (arachidonic acid alone) of 2.5 mm×10^−2. Effects were compared with those of Indomethacin (400 nmols/ear).
# Acute inflammation: Membrane permeant inositol polyphosphate analogs were administered topically and tested for inhibition of inflammatory symptoms induced by arachidonic acid on the ear of Swiss Webster mice.
# [2] = macroscopic negative effects / side effects after ip and iv injection; type: in vivo, mouse; details: several weeks after treatment
# T84 cells = assay: Colonic Epithelial Cell Assay (Isc across T84 monolayers, Ussing chambers); type: cell-based, human; details: for Isc response to carbachol / Isc response to thapsigargin following carbachol / inhibition of the Isc response to carbachol: 30 min preincubation, T84
# Experimental: Cl^− secretion in colonic epithelial cells was measured as short circuit current (Isc) across T84 monolayers grown to confluence on Snap-wells (Costar) and mounted in Ussing chambers equipped with voltage clamps (Physiologic Instruments, San Diego). Data was acquired and analyzed using AAcquire and Analyze@ software (Physiologic Instruments). T84 cells (passages 18-48) were maintained as described previously in McRoberts, J. A. et al., “Cyclic AMP and Ca^2+-activated K^+ transport pathway in the apical membrane of a human colonic epithelial cell line,” J. Biol. Chem. 260:14163-14172 (1985). After […] of incubation on Snap-wells, monolayers had formed tight junctions and were preincubated with […] Bt2D-myo-Ins(3,4,5,6)P4/AM for 30-min. prior to mounting. An extracellular concentration of 200 uM corresponds to an intracellular concentration of 4 uM (Vajanaphnich, et al., “Long-term uncoupling of chloride secretion from intracellular calcium levels by Ins(3,4,5,6)P4,” Nature 371:711-714 (1994)). […]
# [3] = system: CF Human Nasal Epithelial (CFHNE) cells; assay: Cystic Fibrosis Human Nasal Epithelial Cell Assay (Isc, Ussing chambers); type: cell-based
# Experimental: CF Human Nasal Epithelial (CFHNE) Cell Isolation and Proliferation
# Nasal Polyps were surgically obtained from a CF patient at Children's Hospital (Seattle, Wash.), transported on ice in a sterile container containing a 1:1 mixture of Dulbecco's modification of minimum essential medium Eagle and Ham's F-12 nutrient medium (DMEM/F-12) (Irvine Scientific, Santa Ana, Calif.) supplemented with 100 U/mL penicillin, 0.1 mg/mL streptomycin, 10 mM HEPES, and 2 mM L-glutamine. The tissue samples were aseptically removed from the transport medium and washed (repeated 5 times) by suspending in 40 mL of Joklik's modification of minimum essential medium Eagle (JMEM) at 4° C., and centrifuging at 500 rpm. The supernatant was aspirated and discarded. The tissue was then transferred to JMEM containing 200 U/mL penicillin, 0.2 mg/mL streptomycin, 0.1 mg/mL gentamycin sulfate (Clonetics, San Diego, Calif.), and 0.1 μg/mL amphotericin-B (Clonetics), and 0.1% Protease, washed an additional two times, suspended in […] in a 10 cm tissue culture dish, and incubated at 4° C. for 24 hours. The tissue samples were then gently triturated, the connective tissue aseptically removed, and the remaining cell suspension centrifuged at 1000 rpm. The supernatant was aspirated and the pellet was resuspended in 10 mL proliferation media, consisting of Keratinocyte-Serum Free Medium (KSFM) (Gibco-BRL, Grand Island, N.Y.) containing 5 ng/ml EGF (Gibco), 50 μg/mL BPE (Gibco), 5 μg/mL insulin, 5 μg/mL transferrin, 5 μg/ml sodium selenite, 10 nM 3,3′,5-triiodo-L-thyronine, 200 nM hydrocortisone, 100 U/mL penicillin, 0.1 mg/mL streptomycin, and 2 mM L-glutamine. The cell suspension was transferred to 2.10 cm tissue culture dishes coated with 3 μg/cm^2 rat-tail collagen (Type I) (Becton-Dickinson, Bedford, Mass.), incubated at 37° C. in an humidified atmosphere of 5% CO2 and 95% air. The cells were allowed to grow for 6 days (˜70% confluence) with the media being replaced with fresh media every other day. The cells were then trypsinized using 0.025% trypsin-EDTA for 5 min. The cell suspension was collected, the trypsin deactivated with 10% Fetal Bovine Serum, and centrifuged at 1000 rpm for 5 min. The cells were then counted using an hemocytometer with a yield of 3×10^6 cells per dish. The supernatant was aspirated and the cells were resuspended in KSFM and plated at a density of 10^4 cells/cm^2.
# CFHNE Cell Ussing Chamber Preparation
# The CFHNE cells were prepared for Ussing Chamber studies using Snapwell permeable supports (0.4 μm pore size) (Corning Costar, Cambridge, Mass.) coated with 3 μg/cm^2 rat-tail collagen (type 1). Cells were plated at 9×10^3 cells/cm^2 in KSFM. After 2 days, an air-liquid interface (ALI) was initiated in DMEM/F-12 containing: 2% Fetal Clone III (Hyclone, Logan, Utah), 2.5 μg/mL insulin, 2.5 μg/mL transferrin, 2.5 μg/mL sodium selenite, 20 nM hydrocortisone, 1.5 μM epinephrine, 50 μg/mL BPE, 1 nM 3,3′,5-triiodo-L-thyronine, 3.3 nM All-trans retinoic acid, 250 nM ethanolamine, 250 nM O-phosporylethanolamine, 100 U/mL penicillin, 0.1 mg/ml streptomycin, and 2 mM L-glutamine. The CFHNE monolayers reached maximal resistance (˜200 Ω/cm^2) 5-7 days after initiation of ALI. All media/reagents, unless otherwise specified, were supplied by Sigma Chemical Co., St. Louis, Mo.
# [4] = extracellular concentration of 200 uM; cited from earlier work
# [5] = preincubation with 200 μM, CFHNE monolayers
compound,measurement,setting,value
"D-1-O-octyl-2-O-butyryl-myo-inositol 1,4,5,6-tetrakisphosphate-octakis-(propionoxymethyl)ester [INO-E3]",effectiveness by route of application,"[1]; topically, intraperitoneally and orally","effective when applied topically, intraperitoneally and orally"
same,macroscopic negative effects,[2]; ip injections up to 50 μg/animal,No macroscopic negative effects
same,macroscopic negative effects,[2]; iv injections of 20 μg/animal,No macroscopic negative effects
"CCCC12OC(C)(C)OC1C(OP(=O)(OCOC(C)=O)OCOC(C)=O)C(OP(=O)(OCOC(C)=O)OCOC(C)=O)C(OP(=O)(OCOC(C)=O)OCOC(C)=O)C2OP(=O)(OCOC(C)=O)OCOC(C)=O (racemic) [Compound B, rac-1,2-O-isopropylidene-2-C-propyl-myo-inositol 3,4,5,6-tetrakisphosphate-octakis(acetoxymethyl) ester]",Ear Thickness,[1],56.1 ± 2.1 mm × 10^−2
same,Isc response to carbachol,T84 cells; 400 μM,prolongs; also recorded: prolonged increase in Isc response
same,Isc response to thapsigargin following carbachol,T84 cells; 400 μM,overcomes the inhibitory effect of carbachol pretreatment; also recorded: prolonged increase in Isc response
same,"Isc, acute effect","T84 cells; applied acutely to the apical surface of T84 monolayers, one monolayer",triggers an increase in Isc; also recorded: large and prolonged increase in Isc
same,negative component of the ATP effect on Isc,"[3]; FIG. 11 legend: preincubation at 400 μM, CFHNE, average of duplicates",reverse the negative component of the ATP effect on Isc
same,negative phase of Isc following ATP,[3]; [5],"totally reversed the negative phase, instead causing a long term increase in Isc"
same,transient increase in Isc following ATP,[3]; [5],inhibited
"COCCOCOC12CCCCOC1C(OP(=O)(OCOC(C)=O)OCOC(C)=O)C(OP(=O)(OCOC(C)=O)OCOC(C)=O)C(OP(=O)(OCOC(C)=O)OCOC(C)=O)C2OP(=O)(OCOC(C)=O)OCOC(C)=O (centres unmarked) [Compound C, (5aa,6a,7b,8a,9b,9aa)-6,7,8,9-tetrakis[[bis(acetoxymethoxy)-phosphoryl]oxy]-5a-[(2′-methoxy)ethoxy]methoxy-decahydro-benzo[b]oxepin]",Ear Thickness,[1],50.0 ± 5.5 mm × 10^−2
same,Isc response to carbachol,T84 cells; 200 μM,reduces the magnitude
same,inhibition of the Isc response to carbachol,T84 cells; 200 μM,approximately 50%
same,Isc response to carbachol,T84 cells; 400 μM,reduces the magnitude
same,Isc response to thapsigargin following carbachol,T84 cells; 400 μM,partially restores the response of the monolayers to thapsigargin
same,inhibition of the Isc response to carbachol,T84 cells; 400 μM,approximately 50%
"CCCOC1C(OP(=O)(OCOC(C)=O)OCOC(C)=O)C(OP(=O)(OCOC(C)=O)OCOC(C)=O)C(OP(=O)(OCOC(C)=O)OCOC(C)=O)C(OP(=O)(OCOC(C)=O)OCOC(C)=O)C1(CCC)OC(=O)CCC (racemic) [Compound A, rac-2-O-butyryl-2-C-propyl-1-O-propyl-myo-inositol 3,4,5,6-tetrakisphosphate-octakis(acetoxymethyl) ester]",Ear Thickness,[1],52.5 ± 5.5 mm × 10^−2
same,Isc response to carbachol,T84 cells; 400 μM,did not affect
same,Isc response to thapsigargin following carbachol,T84 cells; 400 μM,partially reversed the inhibition of thapsigargin induced chloride secretion; also recorded: partially restores the Isc response to thapsigargin following carbachol
same,Isc response to subsequent stimulation with ATP,"[3]; 95 μM, CFHNE",appeared to prolong the response to subsequent stimulation with ATP; also recorded: prolonged increase in Isc following ATP addition
same,"Isc, direct effect","[3]; 95 μM, CFHNE",little direct effect
same,"Isc, direct effect","[3]; 200 μM, added basolaterally, CFHNE (passage 3)",prolonged increase in Isc comparable in amplitude to that stimulated with ATP
"CCCC(=O)OC1C(OC(=O)CCC)C(OP(=O)(OCOC(C)=O)OCOC(C)=O)C(OP(=O)(OCOC(C)=O)OCOC(C)=O)C(OP(=O)(OCOC(C)=O)OCOC(C)=O)C1OP(=O)(OCOC(C)=O)OCOC(C)=O (centres unmarked) [Bt2D-myo-Ins(3,4,5,6)P4/AM]",intracellular concentration,[4],4 µM
